Results: patent US10428041B2, “Pyridyl reverse sulfonamides for HBV treatment” (Novira Therapeutics, Inc., priority 2014, dated 2019)

Tested on: HBV replication in HepG2-2.2.15 cells
Test: Inhibition of HBV replication dot-blot assay
Type: cell-based
Conditions: Hepatitis B virus, 144 h, reduction in HBV DNA levels, six days
Procedure: Compounds active in the HBV assembly assay are tested for their activity and toxicity in cellular assay. In the first anti-viral assay, the ability of compounds to inhibit HBV replication in an HBV-producing hepatoma cell line using the dot-blot method is evaluated.
(§1) Briefly, confluent monolayers of HepG2-2.2.15 cells are incubated with complete medium containing various concentrations of a test compound. Three days later, the culture medium is replaced with fresh medium containing the appropriately diluted test compound. Six days following the initial administration of the test compound, the cell culture supernatant is collected, and cell lysis is performed. The samples are applied onto Nylos membranes and DNA is immobilized to the membrane by UV cross-linking. After pre-hybridization, the HBV probe is added and the hybridization is performed overnight. The membranes are exposed to the KODAK films; antiviral activity is calculated from the reduction in HBV DNA levels (EC50). The EC50 for antiviral activity is calculated from the dose response curves of active compounds. Assay performance over time is monitored by the use of the standard positive control compounds ETV, BAY 41-4109, and HAP-1.
Selected compounds are tested for their activity and toxicity in cellular assay. In the first anti-viral assay, the ability of compounds to inhibit HBV replication in an HBV-producing hepatoma cell line using the dot-blot method is evaluated.
as §1, with “Confluent monolayers” for “Briefly, confluent monolayers”, “lysis was” for “lysis is”

Structure (SMILES)	EC50
O=C(Nc1ccc(F)c(Cl)c1)c1ccnc(NS(=O)(=O)CCc2ccccc2)c1 [Compound 21, N-(3-Chloro-4-fluorophenyl)-2-(2-phenylethylsulfonamido)isonicotinamide]	< 10 µM
O=C(Nc1ccc(F)c(Cl)c1)c1ccnc(NS(=O)(=O)CCC2CC2)c1 [Compound 23, N-(3-Chloro-4-fluorophenyl)-2-(2-cyclopropylethylsulfonamido)isonicotinamide]	< 10 µM
CS(=O)(=O)Nc1cc(C(=O)Nc2ccc(F)c(Cl)c2)ccn1 [Compound 35, N-(3-Chloro-4-fluorophenyl)-2-(methylsulfonamido)isonicotinamide]	< 10 µM
O=C(Nc1ccc(F)c(Cl)c1)c1ccnc(NS(=O)(=O)CC2CC2)c1 [Compound 36, N-(3-Chloro-4-fluorophenyl)-2-(cyclopropylmethylsulfonamido)isonicotinamide]	< 10 µM
